# Reference: US20030134292A1, “Thermostable DNA polymerases and methods of making same” (priority 2001, published 2003)
# What was measured:
# Assay type in all cases: biochemical
# [1] = target: T1, Taq Δ271 F667Y (polymerase A) (Thermus aquaticus, UniProt P19821, F272M/F667Y); test: DNA polymerase activity assay with detergent or additive, Taq Δ271 F667Y purified without detergent
# T1 construct: made in house; host or cells: E. coli
# Procedure: (§1) DNA polymerase activity was measured by running reactions of 50 μL containing 25 mM TAPS (tris-hydroxymethyl-methylaminopropane sulfonic acid) buffer, pH 9.3 (measured at 25° C.), 50 mM KCl, 2 mM MgCl2, 1 mM 2-mercaptoethanol, 0.2 mM each of dGTP, dCTP, dTTP, 0.2 mM [α-^33P]-dATP (0.05-0.1 Ci/mmol) and 0.4 mg/mL activated salmon sperm DNA. The reaction mixture (45 μL) was pre-heated to 74° C. and diluted polymerase (5 μL) added with thorough mixing. After 10 minutes of further incubation at 74° C., the reaction was stopped by the addition of 10 μL of 60 mM EDTA and the entire mixture placed at 0° C. Acid-precipitable radioactivity was determined on an aliquot ([…]) by diluting with 1 ml of 2 mM EDTA containing 0.05 mg/ml salmon sperm DNA and adding 1 mL of 20% (w/v) trichloroacetic acid, 2% (w/v) sodium pyrophosphate (Na4P2O7 10H2O) and incubating on ice for at least 15 minutes. Precipitated DNA was collected by filtering through 2.4 cm GFC filter disks (Schleichter and Schuell) and washed 7 times with 5ml of with 1 N HCl, 0.1 M sodium pyrophosphate. The filter was placed in 3 ml of aqueous scintillation counting fluid and ^33P-specific radioactivity determined by scintillation counting.
# (§2) For the assays presented in Tables 5 and 6, the polymerase was diluted 10-5000 fold in a buffer containing 25 mM Tris-HCl pH 8.0, 50 mM KCl, 1 mM 2-mercaptoethanol, and the indicated concentration of detergent or other additive. Where possible, only reactions which incorporated 20- 100 pmol of dAMP in 10 minutes were used for calculation of activity.
# [2] = target: T2, Taq Δ271 F667Y E681W (polymerase B) (Thermus aquaticus, UniProt P19821, E681W/F272M/F667Y); test: DNA polymerase activity assay with detergent or additive, Taq Δ271 F667Y E681W purified without detergent
# T2 construct: made in house; host or cells: E. coli
# Procedure: as §1, §2
# [3] = target: T3, Tth Δ273 F668Y (polymerase C) (Thermus thermophilus, UniProt P52028, F274M/F669Y); test: DNA polymerase activity assay with detergent or additive, Tth Δ273 F668Y purified without detergent
# T3 construct: made in house; host or cells: E. coli
# Procedure: as §1, §2
# [4] = test system: activated salmon sperm DNA; test: Specific DNA polymerase activity of enzymes purified and assayed with or without Tween 20 and NP-40
# Procedure: In one embodiment of the present invention, Taq Δ271 F667Y, and Taq Δ271 F667Y E681W were purified with or without detergents NP-40 & Tween-20. The butyl Sepharose chromatography elution profile for polymerase extracted without detergents was essentially identical to the profile for polymerase extracted with Tween 20 and NP-40.
# as §1
# [5] = additive final concentration 0.01% (w/v)
# [6] = additive final concentration 0.1% (w/v)
# [7] = additive final concentration 0.05% (w/v)
# [8] = additive final concentration 0.2% (w/v)
# [9] = detergent in purification: 0.1% Tween 20, 0.1% NP-40, detergent in assay: 0.1% Tween 20, 0.1% NP-40 (reference, 100%)
# [10] = detergent in purification: 0.1% Tween 20, 0.1% NP-40, detergent in assay: None
# [11] = detergent in purification: None, detergent in assay: 0.1% Tween 20, 0.1% NP-40
# [12] = detergent in purification: None, detergent in assay: None, 100% = polymerase purified and assayed using Tween 20 and NP-40
# T3 sequence (P52028 274-834 F274M/F669Y): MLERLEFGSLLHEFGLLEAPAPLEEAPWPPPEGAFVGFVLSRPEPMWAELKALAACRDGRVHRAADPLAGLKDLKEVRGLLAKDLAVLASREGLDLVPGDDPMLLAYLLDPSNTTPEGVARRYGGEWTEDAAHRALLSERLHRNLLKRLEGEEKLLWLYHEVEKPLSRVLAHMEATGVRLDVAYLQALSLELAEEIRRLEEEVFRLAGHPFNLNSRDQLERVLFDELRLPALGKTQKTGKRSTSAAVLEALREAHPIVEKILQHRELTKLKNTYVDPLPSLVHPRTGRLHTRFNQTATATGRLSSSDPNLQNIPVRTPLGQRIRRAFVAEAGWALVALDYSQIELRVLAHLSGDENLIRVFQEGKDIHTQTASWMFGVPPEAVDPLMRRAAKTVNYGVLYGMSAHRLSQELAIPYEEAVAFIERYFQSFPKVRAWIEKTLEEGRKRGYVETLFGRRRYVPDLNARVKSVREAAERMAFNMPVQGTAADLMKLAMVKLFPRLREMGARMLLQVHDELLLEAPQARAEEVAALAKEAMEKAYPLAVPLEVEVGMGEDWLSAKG
# T2 sequence (P19821 272-832 F272M/F667Y/E681W): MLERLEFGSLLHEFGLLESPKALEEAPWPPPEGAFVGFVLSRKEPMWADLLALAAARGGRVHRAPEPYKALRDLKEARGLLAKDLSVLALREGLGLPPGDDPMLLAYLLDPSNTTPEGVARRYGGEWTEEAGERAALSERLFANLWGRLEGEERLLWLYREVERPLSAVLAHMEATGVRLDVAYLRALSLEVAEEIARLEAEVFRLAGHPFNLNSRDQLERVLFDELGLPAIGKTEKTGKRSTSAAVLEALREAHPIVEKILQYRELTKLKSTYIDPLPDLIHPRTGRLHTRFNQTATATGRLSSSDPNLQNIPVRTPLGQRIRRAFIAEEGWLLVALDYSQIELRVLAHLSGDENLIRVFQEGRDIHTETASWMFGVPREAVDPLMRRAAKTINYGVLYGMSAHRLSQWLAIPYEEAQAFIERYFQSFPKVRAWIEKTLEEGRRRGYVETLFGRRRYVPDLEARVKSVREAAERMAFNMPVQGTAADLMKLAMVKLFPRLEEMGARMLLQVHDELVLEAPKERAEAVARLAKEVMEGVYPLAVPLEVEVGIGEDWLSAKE
Molecule,"Taq Δ271 F667Y activity relative to 0.5% each NP-40 and Tween 20 [1, 5]","Taq Δ271 F667Y activity relative to 0.5% each NP-40 and Tween 20 [1, 6]","Taq Δ271 F667Y E681W activity relative to 0.5% each NP-40 and Tween 20 [2, 5]","Taq Δ271 F667Y E681W activity relative to 0.5% each NP-40 and Tween 20 [2, 6]","Tth Δ273 F668Y activity relative to 0.5% each NP-40 and Tween 20 [3, 5]","Tth Δ273 F668Y activity relative to 0.5% each NP-40 and Tween 20 [3, 6]","Taq Δ271 F667Y activity relative to 0.5% each NP-40 and Tween 20 [1, 7]","Taq Δ271 F667Y E681W activity relative to 0.5% each NP-40 and Tween 20 [2, 7]","Tth Δ273 F668Y activity relative to 0.5% each NP-40 and Tween 20 [3, 7]",other results
"CCCCCCCCO[C@@H]1O[C@H](CO)[C@@H](O)[C@H](O)[C@H]1O [Octyl Glucopyranoside, n-octyl-β-D-glucopyranoside]",− − − (Activity < 20%),− − (Activity 20-50%),− − − (Activity < 20%),+ + + (Activity > 80% (relative to activity using 0.5% each NP-40 and Tween 20)),− − − (Activity < 20%),+ + + (Activity > 80% (relative to activity using 0.5% each NP-40 and Tween 20)),,,,Polymerase B Activity (%) ([2]; detergent 0.1% (w/v)): 1%; Polymerase C Activity (%) ([3]; detergent 0.1% (w/v)): 79.7%
C[C@H](CCC(=O)[O-])[C@H]1CC[C@H]2[C@@H]3[C@H](O)C[C@@H]4C[C@H](O)CC[C@]4(C)[C@H]3C[C@H](O)[C@]12C.[Na+] [Sodium Cholate],− − − (Activity < 20%),− − − (Activity < 20%),− − − (Activity < 20%),− − − (Activity < 20%),− − − (Activity < 20%),− − − (Activity < 20%),− − − (Activity < 20%),− − − (Activity < 20%),− − − (Activity < 20%),
CCCCCCCC[N+](C)(C)CCCS(=O)(=O)[O-] [Zwittergent 3-08],,− − (Activity 20-50%),,− − (Activity 20-50%),,− (Activity 50-60%),− − − (Activity < 20%),− − − (Activity < 20%),− − (Activity 20-50%),"Taq Δ271 F667Y activity relative to 0.5% each NP-40 and Tween 20 [1, 8]: − − (Activity 20-50%); Taq Δ271 F667Y E681W activity relative to 0.5% each NP-40 and Tween 20 [2, 8]: − − (Activity 20-50%); Tth Δ273 F668Y activity relative to 0.5% each NP-40 and Tween 20 [3, 8]: + (Activity 60-70%)"
CCCCCCCCCC[N+](C)(C)CCCS(=O)(=O)[O-] [Zwittergent 3-10],,− − (Activity 20-50%),,− − (Activity 20-50%),,+ (Activity 60-70%),− − (Activity 20-50%),− − − (Activity < 20%),− − (Activity 20-50%),"Taq Δ271 F667Y activity relative to 0.5% each NP-40 and Tween 20 [1, 8]: − (Activity 50-60%); Taq Δ271 F667Y E681W activity relative to 0.5% each NP-40 and Tween 20 [2, 8]: − − (Activity 20-50%); Tth Δ273 F668Y activity relative to 0.5% each NP-40 and Tween 20 [3, 8]: + (Activity 60-70%)"
"CCCCCCCCCCCCO[C@@H]1O[C@H](CO)[C@@H](O[C@H]2O[C@H](CO)[C@@H](O)[C@H](O)[C@H]2O)[C@H](O)[C@H]1O [n-Dodecyl-β-D-Maltoside, n-dodecyl-β-D-maltoside]",+ ++,,+ + + (Activity > 80% (relative to activity using 0.5% each NP-40 and Tween 20)),+ (Activity 60-70%),+ + + (Activity > 80% (relative to activity using 0.5% each NP-40 and Tween 20)),,,,,Polymerase A Activity (%) ([1]; detergent 0.01% (w/v)): 98.8%; Taq Δ271 F667Y E681W activity relative to 0.5% each NP-40 and Tween 20 ([2]; additive final concentration 0.001% (w/v) in assay reaction mixture): + (Activity 60-70%); Taq Δ271 F667Y E681W activity relative to 0.5% each NP-40 and Tween 20 ([2]; additive final concentration 0.02% (w/v)): + (Activity 60-70%); Polymerase B Activity (%) ([2]; detergent 0.01% (w/v)): 92.3%; Polymerase C Activity (%) ([3]; detergent 0.01% (w/v)): 80.8%
Sodium Deoxycholate,− − − (Activity < 20%),− − − (Activity < 20%),− − − (Activity < 20%),− − − (Activity < 20%),− − − (Activity < 20%),− − − (Activity < 20%),− − − (Activity < 20%),− − − (Activity < 20%),− − − (Activity < 20%),
"Taq Δ271, F667Y: Taq Δ271 F667Y DNA Polymerase (Thermo Sequenase), SEQ ID NO: 10, recombinant thermostable DNA polymerase (protein, listed as Thermus aquaticus) MLERLEFGSLLHEFGLLESPKALEEAPWPPPEGAFVGFVLSRKEPMWADLLALAAARGGRVHRAPEPYKALRDLKEARGLLAKDLSVLALREGLGLPPGDDPMLLAYLLDPSNTTPEGVARRYGGEWTEEAGERAALSERLFANLWGRLEGEERLLWLYREVERPLSAVLAHMEATGVRLDVAYLRALSLEVAEEIARLEAEVFRLAGHPFNLNSRDQLERVLFDELGLPAIGKTEKTGKRSTSAAVLEALREAHPIVEKILQYRELTKLKSTYIDPLPDLIHPRTGRLHTRFNQTATATGRLSSSDPNLQNIPVRTPLGQRIRRAFIAEEGWLLVALDYSQIELRVLAHLSGDENLIRVFQEGRDIHTETASWMFGVPREAVDPLMRRAAKTINYGVLYGMSAHRLSQELAIPYEEAQAFIERYFQSFPKVRAWIEKTLEEGRRRGYVETLFGRRRYVPDLEARVKSVREAAERMAFNMPVQGTAADLMKLAMVKLFPRLEEMGARMLLQVHDELVLEAPKERAEAVARLAKEVMEGVYPLAVPLEVEVGIGEDWLSAKE",,,,,,,,,,"Assay (%*) specific activity [4, 9]: 100%; Assay (%*) specific activity [4, 10]: 3%; Assay (%*) specific activity [4, 11]: 102%; Assay (%*) specific activity [4, 12]: 5%"
"Taq Δ271, F667Y, E681W: Taq Δ271 F667Y E681W DNA Polymerase, SEQ ID NO: 12, recombinant thermostable DNA polymerase (protein, listed as Thermus aquaticus) MLERLEFGSLLHEFGLLESPKALEEAPWPPPEGAFVGFVLSRKEPMWADLLALAAARGGRVHRAPEPYKALRDLKEARGLLAKDLSVLALREGLGLPPGDDPMLLAYLLDPSNTTPEGVARRYGGEWTEEAGERAALSERLFANLWGRLEGEERLLWLYREVERPLSAVLAHMEATGVRLDVAYLRALSLEVAEEIARLEAEVFRLAGHPFNLNSRDQLERVLFDELGLPAIGKTEKTGKRSTSAAVLEALREAHPIVEKILQYRELTKLKSTYIDPLPDLIHPRTGRLHTRFNQTATATGRLSSSDPNLQNIPVRTPLGQRIRRAFIAEEGWLLVALDYSQIELRVLAHLSGDENLIRVFQEGRDIHTETASWMFGVPREAVDPLMRRAAKTINYGVLYGMSAHRLSQWLAIPYEEAQAFIERYFQSFPKVRAWIEKTLEEGRRRGYVETLFGRRRYVPDLEARVKSVREAAERMAFNMPVQGTAADLMKLAMVKLFPRLEEMGARML",,,,,,,,,,"Assay (%*) specific activity [4, 9]: 100%; Assay (%*) specific activity [4, 10]: 2%; Assay (%*) specific activity [4, 11]: 157%; Assay (%*) specific activity [4, 12]: 6%"
